Test results: publication PMC7847937, “Search for Antimicrobial Activity Among Fifty-Two Natural and Synthetic Compounds Identifies Anthraquinone and Polyacetylene Classes That Inhibit Mycobacterium tuberculosis” (Frontiers in Microbiology, 2021)
≈ marks a conversion by molar mass, not a printed value. Read-outs that look alike come from different tables or passages of the source.

Tests used:
[1] = tested on: THP-1 cells; conditions: cited from earlier work
[2] = tested on: human monocytic THP-1 cell line; test: Cytotoxicity assay in THP-1 monocytes (CellTiter-Blue, 24 h); type: cell-based; conditions: for IC50: Homo sapiens; for toxicity (in words): compared to the other active compounds
[3] = tested on: Mycobacterium tuberculosis H37Rv; test: MIC determination by resazurin microtiter plate assay (REMA) with CellTiter-Blue; type: cell-based; conditions: for MIC: M. tuberculosis H37Rv, 7 days, two-fold dilutions 100 to 1.56 μg/mL, Gompertz fit; for antimycobacterial activity (in words): dose response, Figure 6
[4] = tested on: human monocyte cells; conditions: cited from earlier work
[5] = tested on: Mycobacterium tuberculosis H37Rv; test: Compound library screen against M. tuberculosis at 100 μg/mL (CellTiter-Blue viability); type: cell-based; conditions: library screen at 100 μg/mL, 7 days
[6] = tested on: AML12 hepatocytes; conditions: cited from earlier work
[7] = THP-1 cells, 24 h treatment, 200 to 1.56 μg/mL, read-out: IC50
[8] = Mycobacterium tuberculosis, H37RV, 168 h, read-out: MIC

Compound	IC50 [2, 7] [µg/mL]	MIC [3, 8] [µg/mL]	also measured
CC(C)=CCc1c(O)ccc(C(=O)/C=C/c2ccc(O)cc2)c1O [Compound C1, Isobavachalcone]	45.9 (≈ 141 µM)	–	cytotoxic concentration 50% (CC50) [1]: 11.65 µg/mL
COC(=O)C1=C(N)Oc2cc(O)c3c(C)cc(=O)oc3c2C1c1ccc([N+](=O)[O-])cc1 (stereo not drawn) [Compound C10]	64.2 (≈ 151 µM)	25 to 71 (≈ 58.9 to 167 µM)	MIC [3]: 29.13 µg/mL (≈ 68.6 µM); toxicity (in words) [2]: low toxicity
COC(=O)/C(C#N)=C/C=C/c1ccccc1 [Compound C13]	–	≥ 100	antimycobacterial activity (in words) [3]: weak activity; IC50 ([2]; THP-1, 24 h): 95.9 µg/mL (≈ 450 µM); toxicity to human monocyte cells (in words) [4]: moderately toxic
COC(=O)C1=C(N)Oc2cc(O)cc(O)c2C1c1ccc(Cl)cc1 (stereo not drawn) [Compound C14]	47.2 (≈ 136 µM)	≥ 100	antimycobacterial activity (in words) [3]: weak antimycobacterial activity; toxicity to human monocyte cells (in words) [4]: moderately toxic
COC(=O)C1=C(N)Oc2cc(O)cc(O)c2C1c1ccc(Br)cc1 (stereo not drawn) [Compound C15]	–	≥ 100	–
COC(=O)C1=C(N)Oc2cc(O)cc(O)c2C1c1ccc([N+](=O)[O-])cc1 (stereo not drawn) [Compound C16]	–	–	anti-M. tuberculosis activity (in words) [5]: not active
CC1(C)C=Cc2c(ccc(C(=O)/C=C/c3ccc(O)cc3)c2O)O1 [Compound C21, 4-hydroxylonchocarpine]	–	–	anti-M. tuberculosis activity (in words) [5]: not mycobactericidal
COc1c(C=O)c(O)cc2c1C(=O)c1ccccc1C2=O [Compound C22, Damnacanthal]	21.4 (≈ 75.9 µM)	< 20	MIC [3]: 13.07 µg/mL (≈ 46.3 µM); cytotoxic concentration 50% (CC50) [1]: 8.87 µg/mL
CC1(C)C=Cc2cc3c(cc2O1)O[C@H]1c2ccc(O)cc2OC[C@@H]31 [Compound C23, Isoneorautenol]	44.3 (≈ 137 µM)	25 to 71 (≈ 77.6 to 220 µM)	concentration up to which no cytotoxicity was shown [6]: > 123.46 µM; MIC [3]: 49.22 µg/mL (≈ 153 µM)
CC(C)=CCc1c(O)c(CC=C(C)C)c2c(c1O)C(=O)C[C@@H](c1ccc(O)c(O)c1)O2 [Compound C24, 6,8-diprenyleriodictyol]	–	≥ 100	–
COc1c(C)c(O)cc2c1C(=O)c1ccccc1C2=O [Compound C25, rubiadin 1-methyl ether]	–	–	anti-M. tuberculosis activity (in words) [5]: no anti-M. tuberculosis activity
CCOC(=O)C1=C(C)NC(C)=C(C(=O)OCC)C1c1ccc([N+](=O)[O-])cc1 [Compound C36]	–	≥ 100	–
CCOC(=O)C1=C(C)NC(C)=C(C(=O)OCC)C1c1ccc(O)c(OC)c1 [Compound C38]	–	≥ 100	–
CCOC(=O)C1=C(C)NC(C)=C(C(=O)OCC)C1c1cc(OC)c(OC)c(OC)c1 [Compound C40]	–	≥ 100	–
CCOC(=O)C1=C(C)NC(C)=C(C(=O)OCC)C1c1cc(OC)c(O)c(OC)c1 [Compound C41]	–	≥ 100	–
CCOC(=O)C1=C(C)N(c2ccccc2)C(C)=C(C(=O)OCC)C1c1ccc(O)cc1 [Compound C45]	–	≥ 100	–
CCOC(=O)C1=C(C)N(c2ccccc2)C(C)=C(C(=O)OCC)C1c1cc(OC)c(O)c(OC)c1 [Compound C49]	–	≥ 100	–
CC#CC#CC#CCCCO [Compound C51, Deca-4,6,8-triyn-1-ol]	170 (≈ 1170 µM)	–	toxicity (in words) [2]: low toxicity
OCCCC#CC#CC#CC#CCCCO [Compound C53, Tetradeca-4,6,8,10-tetrayne-1,14-diol]	17 (≈ 79.3 µM)	< 20	MIC [3]: 17.88 µg/mL (≈ 83.4 µM); melting point: 116.5 to 117 °C
